The record followed here is patent US20260200919A1, “SUBSTITUTED AMINOPYRIDINE COMPOUNDS AND METHODS OF TREATING DISEASE USING SAME” (Atavistik Bio, Inc., priority 2023, published 2026).

Assay [1] concerns the target T1, human recombinant kinase full-length AKT1 E17K (Homo sapiens, UniProt P31749, E17K).
T1 construct: Purified human recombinant kinase full-length AKT1 E17K was expressed in insect cells; made in house; host or cells: insect cells
As to the kind of experiment: AKT1 E17K kinase assay (TR-FRET, Lance). The following applies: 0.6 nM AKT1 E17K, 50 nM Ulight-CREBtide, either 50 μM ATP or 2 mM ATP (not specified which), 60 min at RT. The format is biochemical. The procedure: AKT1 E17K kinase assay: Inhibitory effects of compounds on AKT1 E17K were undertaken in a 10-pt dose response kinase activity assay measuring phospho-peptide product formation based on TR-FRET signal as described in the following paragraph.
(§1) Purified human recombinant kinase full-length AKT1 E17K was expressed in insect cells and activated in vitro by PDPK1. Ulight™-CREBtide (PerkinElmer, catalog number TRF0107) was used as the peptide substrate. The reaction buffer consisted of 50 mM HEPES pH 7.5, 10 mM MgCl2, 0.01% Triton X-100, 0.01% BSA, 2 mM DTT, 0.6 nM AKT1 E17K, 50 nM. Ulight™ CREBtide and either 50 μM ATP or 2 mM ATP. The compound solution was prepared as 10 mM DMSO stock. […] Final DMSO concentration in the assay was 1%. […] The reaction was stopped after 60 min of incubation at RT by the addition of 10 μL of Detection Mix (PerkinElmer, #CR97-100) consisting of Europium-anti-phospho-CREB (Ser133) (Perkin Elmer, catalog numberTRF0200). Incubation with the detection mix for a further 60 min allowed binding of antibody to the phospho-Ulight™ CREBtide. The fluorescence emissions at 620 nm and 665 nm after excitation at […] was measured using Envision reader. The ratio of the emissions at 665 nm and at 620 nm provided the measure for the amount of phosphorylated CREBtide product of AKT1 E17K kinase activity.

The target of assay [2] is T2, human recombinant kinase full-length wildtype AKT1 (Homo sapiens, UniProt P31749).
T2 construct: Purified human recombinant kinase full-length wildtype AKT1 was expressed in insect cells; made in house; host or cells: insect cells
As to the kind of experiment: AKT1 kinase assay (wildtype, TR-FRET, Lance). Type of assay: biochemical. The following applies: 0.6 nM wildtype AKT1, 50 nM Ulight-CREBtide, either 50 μM ATP or 2 mM ATP (not specified which), 60 min at RT. The procedure:
AKT1 kinase assay: Inhibitory effects of compounds on wildtype AKT1 were undertaken in a 10-pt dose response kinase activity assay measuring phospho-peptide product formation based on TR-FRET signal as described in the following paragraph.
as §1, with “full-length wildtype” for “full-length”, “AKT1” for “AKT1 E17K”, “Ulight™—CREBtide” for “Ulight™-CREBtide”, “AKT1,” for “AKT1 E17K,”, “nM Ulight™-CREBtide” for “nM. Ulight™ CREBtide”

Bounds are passed on as bounds.

T2 sequence (P31749 whole entry): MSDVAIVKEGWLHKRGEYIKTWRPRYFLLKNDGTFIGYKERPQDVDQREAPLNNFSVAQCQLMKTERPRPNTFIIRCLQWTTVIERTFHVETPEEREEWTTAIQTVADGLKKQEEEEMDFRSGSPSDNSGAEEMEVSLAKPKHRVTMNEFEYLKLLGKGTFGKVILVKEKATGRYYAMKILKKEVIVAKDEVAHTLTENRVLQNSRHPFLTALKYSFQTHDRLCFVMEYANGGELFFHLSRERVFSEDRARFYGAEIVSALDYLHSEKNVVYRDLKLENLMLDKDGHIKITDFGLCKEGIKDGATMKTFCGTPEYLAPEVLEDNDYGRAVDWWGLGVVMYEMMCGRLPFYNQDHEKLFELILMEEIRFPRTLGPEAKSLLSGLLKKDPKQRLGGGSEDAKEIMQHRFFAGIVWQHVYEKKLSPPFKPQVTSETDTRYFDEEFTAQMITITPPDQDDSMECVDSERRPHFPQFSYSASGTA
T1 sequence (P31749 whole entry E17K): as the sequence (P31749 whole entry) above, with E17K counted along it

As to `CC(=O)Nc1cccc(-c2ccc3nc(-c4cccnc4N)n(-c4ccc(CNC(=O)c5cccc(CC(=O)O)c5)cc4)c3n2)c1` [Compound 81, 2-(3-((4-(5-(3-acetamidophenyl)-2-(2-aminopyridin-3-yl)-3H-imidazo[4,5-b]pyridin-3-yl)benzyl)carbamoyl)phenyl) acetic acid], the values for the 50% inhibitory concentration (IC50) in assay [1] and in assay [2] were 50 to 200 nM and less than 500 nM, respectively.
Consider `Nc1ncccc1-c1nc2ccc(-c3ccccc3)nc2n1-c1ccc(NC(=O)c2ccc(C(=O)O)cc2)nc1` [Compound 59, 4-((5-(2-(2-aminopyridin-3-yl)-5-phenyl-3H-imidazo[4,5-b]pyridin-3-yl)pyridin-2-yl)carbamoyl)benzoic acid], for which the figures for the IC50 in assay [1] and in assay [2] were less than 50 nM and less than 500 nM, respectively.
For `COC(=O)c1cccc(C(=O)N2CC(c3ccc(-n4c(-c5cccnc5N)nc5ccc(-c6ccccc6)nc54)cc3)C2)c1` [Compound 71, methyl 3-(3-(4-(2-(2-aminopyridin-3-yl)-5-phenyl-3H-imidazo[4,5-b]pyridin-3-yl)phenyl)azetidine-1-carbonyl)benzoate] the same measures were 50 to 200 nM and less than 500 nM.
Taken in the same sequence, the figures for `Nc1ncccc1-c1nc2cc(-c3cccnc3)cnc2n1-c1ccc(CNC(=O)c2ccc(CC(=O)O)cc2)cc1` [Compound 88, 2-(4-((4-(2-(2-aminopyridin-3-yl)-6-(pyridin-3-yl)-3H-imidazo[4,5-b]pyridin-3-yl)benzyl)carbamoyl)phenyl) acetic acid] were more than 500 nM and less than 500 nM.
For `Cc1cc(C(=O)O)ccc1C(=O)Nc1ccc(-n2c(-c3cccnc3N)nc3ccc(-c4ccccc4)nc32)cc1F` [Compound 66, 4-((4-(2-(2-aminopyridin-3-yl)-5-phenyl-3H-imidazo[4,5-b]pyridin-3-yl)-2-fluorophenyl)carbamoyl)-3-methylbenzoic acid] the same measures were 200 to 500 nM and more than 500 nM.
For `Nc1ncccc1-c1nc2ccc(-c3ccccc3)nc2n1-c1ccc(C2CN(C(=O)c3cccc(C(=O)O)c3)C2)cc1` [Compound 72, 3-(3-(4-(2-(2-aminopyridin-3-yl)-5-phenyl-3H-imidazo[4,5-b]pyridin-3-yl)phenyl)azetidine-1-carbonyl)benzoic acid], the figures for the IC50 in assay [1] and in assay [2] were 50 to 200 nM and less than 500 nM, respectively.
Taken in the same sequence, the figures for `CC(=O)Nc1ccc(-c2ccc3nc(-c4cccnc4N)n(-c4ccc(CNC(=O)c5cccc(CC(=O)O)c5)cc4)c3n2)cc1` [Compound 80, 2-(3-((4-(5-(4-acetamidophenyl)-2-(2-aminopyridin-3-yl)-3H-imidazo[4,5-b]pyridin-3-yl)benzyl)carbamoyl)phenyl) acetic acid] were 200 to 500 nM and less than 500 nM.
In the case of `Cc1cc(C(=O)Nc2ccc(-n3c(-c4cccnc4N)nc4ccc(-c5ccccc5)nc43)cn2)c(F)cc1C(=O)O` [Compound 145], the results for the concentration for half-maximal inhibition (IC50) in assay [1] and in assay [2] were 50 to 200 nM and less than 500 nM, respectively.
In the case of `Nc1ncccc1-c1nc2ccc(-c3ccccc3)nc2n1-c1ccc(CNC(=O)c2cccc(CC(=O)O)c2)nc1` [Compound 48, 2-(3-(((5-(2-(2-aminopyridin-3-yl)-5-phenyl-3H-imidazo[4,5-b]pyridin-3-yl)pyridin-2-yl)methyl)carbamoyl)phenyl)acetic acid], the IC50 in assay [1] and in assay [2] was more than 500 nM each time.
For the compound `CC(c1ccc(C(=O)O)cc1)N1CCC(c2ccc(-n3c(-c4cccnc4N)nc4ccc(-c5ccccc5)nc43)cc2)C1` (stereo not drawn) [Compound 171, 4-(1-(3-(4-(2-(2-aminopyridin-3-yl)-5-phenyl-3H-imidazo[4,5-b]pyridin-3-yl)phenyl)pyrrolidin-1-yl)ethyl)benzoic acid], the IC50 is 200 to 500 nM in assay [1] and less than 500 nM in assay [2].
Take `CC(c1ccc(C(=O)O)cc1)N1CCC(c2ccc(-n3c(-c4cccnc4N)nc4ccc(-c5ccccc5)nc43)cc2)CC1` (stereo not drawn) [Compound 169, 4-(1-(4-(4-(2-(2-aminopyridin-3-yl)-5-phenyl-3H-imidazo[4,5-b]pyridin-3-yl)phenyl)piperidin-1-yl)ethyl)benzoic acid]: the IC50 was 200 to 500 nM in assay [1] and less than 500 nM in assay [2].
In the case of `Nc1ncccc1-c1nc2ccc(-c3ccccc3)nc2n1-c1ccc(NC(=O)c2cc(F)c(C(=O)O)cc2F)nc1` [Compound 152], the IC50 was 50 to 200 nM in assay [1] and less than 500 nM in assay [2].
For `CC(C)(C)c1ccc2nc(-c3cccnc3N)n(-c3ccc(NC(=O)c4ccc(C(=O)O)cc4)nc3)c2c1` [Compound 174, 4-((5-(2-(2-aminopyridin-3-yl)-6-(tert-butyl)-1H-benzo[d]imidazol-1-yl)pyridin-2-yl)carbamoyl)benzoic acid], the IC50 in assay [1] and in assay [2] was more than 500 nM each time.
In the case of `Cc1cc(C(=O)O)c(F)cc1C(=O)Nc1ccc(-n2c(-c3cccnc3N)nc3ccc(-c4ccccc4)nc32)c(C)n1` [Compound 149], the IC50 in assay [1] is 50 to 200 nM; in assay [2], less than 500 nM.
`Nc1ncccc1-c1nc2ccc(-c3ccccc3)nc2n1-c1ccc(NC(=O)c2cccc(CC(=O)O)c2)c(F)c1` [Compound 67, 2-(3-((4-(2-(2-aminopyridin-3-yl)-5-phenyl-3H-imidazo[4,5-b]pyridin-3-yl)-2-fluorophenyl)carbamoyl)phenyl) acetic acid]: the IC50 in assay [1] was 50 to 200 nM; in assay [2], less than 500 nM.
Taken in the same sequence, the figures for `Nc1ncccc1-c1nc2ccc(-c3ccccc3)nc2n1-c1ccc(NCc2ccc(C(=O)O)cc2F)nc1` [Compound 68, 4-[[[5-[2-(2-amino-3-pyridyl)-5-phenyl-imidazo[4,5-b]pyridin-3-yl]-2-pyridyl]amino]methyl]-3-fluoro-benzoic acid] were 50 to 200 nM and less than 500 nM.
Taken in the same sequence, the figures for `Nc1ncccc1-c1nc2ccc(-c3ccccc3)nc2n1-c1ccc(CNC(=O)c2ccc(CCC(=O)O)cc2)cc1` [Compound 40, 3-(4-((4-(2-(2-aminopyridin-3-yl)-5-phenyl-3H-imidazo[4,5-b]pyridin-3-yl)benzyl)carbamoyl)phenyl) propanoic acid] were less than 50 nM and less than 500 nM.
For `Cc1cc(C(=O)O)ccc1C(=O)N1CC(c2ccc(-n3c(-c4cccnc4N)nc4ccc(-c5ccccc5)nc43)cc2)C1` [Compound 75, 4-(3-(4-(2-(2-aminopyridin-3-yl)-5-phenyl-3H-imidazo[4,5-b]pyridin-3-yl)phenyl)azetidine-1-carbonyl)-3-methylbenzoic acid], the IC50 in assay [1] was less than 50 nM; in assay [2], less than 500 nM.
For `CC(C(=O)O)c1ccc(C(=O)NCc2ccc(-n3c(-c4cccnc4N)nc4ccc(-c5ccccc5)nc43)cc2)cc1` (stereo not drawn) [Compound 35, 2-(4-((4-(2-(2-aminopyridin-3-yl)-5-phenyl-3H-imidazo[4,5-b]pyridin-3-yl)benzyl)carbamoyl)phenyl) propanoic acid] the same measures were less than 50 nM and less than 500 nM.
As for `CC(c1ccc(C(=O)O)cc1)N1CC(c2ccc(-n3c(-c4cccnc4N)nc4ccc(-c5ccccc5)nc43)cn2)C1` (stereo not drawn) [Compound 167, 4-(1-(3-(5-(2-(2-aminopyridin-3-yl)-5-phenyl-3H-imidazo[4,5-b]pyridin-3-yl)pyridin-2-yl)azetidin-1-yl)ethyl)benzoic acid], the IC50 in assay [1] is more than 500 nM; in assay [2], less than 500 nM.
Regarding `C[C@@H](c1ccc(C(=O)O)cc1C(F)(F)F)N1CC(c2ccc(-n3c(-c4cccnc4N)nc4ccc(-c5ccccc5)nc43)cc2)C1` [Compound 164], the IC50 in assay [1] is more than 500 nM; in assay [2], less than 500 nM.
